This is an account of results in EP0410147B1.

In the assay the test system is HRV2-2A. It is filed as biochemical. The note with it: for Spaltung des Peptidsubstrats in trans durch HRV2-2A: 30 min 37°C.

As to “Ac-TRPIITTAGPSDMYVH-NH2 [Peptid H, Ac-TRPIITTAGPSDMYVH-NH₂]”, the “Spaltung des Peptidsubstrats in trans durch HRV2-2A” value is “spezifisch zwischen Alanin und Glycin”.
On to “TRPIITTYGPSDMYVH [Peptid K, Peptidsubstrat mit Spaltsignal Tyr/Gly statt Ala/Gly]”, for which the “Spaltung des Peptidsubstrats” value is reported as 100%, the “Spaltung des Peptidsubstrats durch HRV2-2A in Anwesenheit von 2,5 M NaCl” value was “vollständige Spaltung” and the “Spaltung des Peptidsubstrats in trans durch HRV2-2A” value is given as “mit der gleichen Effizienz wie die nativen Peptidsubstrate vergleichbarer Länge von HRV2-2A gespalten”.
